Data as given in patent US4530903A, “L-2-hydroxy-4-methylpentanoic acid-dehydrogenase, process for obtaining it and its use” (Degussa Aktiengelleschaft, priority 1982, dated 1985).
Blank lines part the entries; values can stand above or below the molecule they belong to.

Legend:
[1] = target: T1, L-2-hydroxy-4-methylpentanoic acid-dehydrogenase (Weissella confusa, UniProt P14295); experiment: Dehydrogenation of 2-hydroxycarboxylic acids to 2-ketocarboxylic acids (Example 1), NADH formation at 340 nm; format: biochemical, Lactobacillus confusus; conditions: same enzyme solution
T1 construct: the cells harvesting by centrifugation, solubilizing the product in a suspension buffered to pH 7 and obtaining the enzyme from the extract; made in house; host or cells: Lactobacillus confusus DSM 20196 (natural producer, not recombinant)
T1 sequence (P14295 1-310): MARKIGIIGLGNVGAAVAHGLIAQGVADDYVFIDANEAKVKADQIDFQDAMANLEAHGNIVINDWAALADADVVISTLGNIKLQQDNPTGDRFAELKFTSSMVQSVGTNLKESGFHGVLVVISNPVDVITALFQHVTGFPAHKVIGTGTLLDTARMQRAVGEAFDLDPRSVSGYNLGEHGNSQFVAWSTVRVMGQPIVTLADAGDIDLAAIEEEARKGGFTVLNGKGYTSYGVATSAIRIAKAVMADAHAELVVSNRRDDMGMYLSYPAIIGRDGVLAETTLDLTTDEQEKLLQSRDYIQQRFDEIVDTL
Method: (§1) In each case, there was measured the maximal initial reaction velocity Vmax and the KM value. […] In a corresponding manner, the enzymatic activity against other 2-hydroxycarboxylic acids was determined. The concentration of the corresponding 2-hydroxycarboxylic acids in the test was varied between 0.2 and a maximum of 100 millimoles. By increasing the substrate concentration, the maximum beginning reaction velocity Vmax was ascertained. The Michaelis constant (KM value) corresponds to the substrate concentration in moles/liter, at which the reaction velocity V amounts to half the maximum initial reaction velocity. The kinetic constants Vmax and KM were ascertained through non-linear regression of the Michaelis-[…] and are collected in Table 2. […] The relative activities (U/ml) set forth in Table 3 were measured at substrate-final concentrations of 1 millimole, 10 millimoles, and 100 millimoles. In all cases, there was employed the same enzyme solution.

[2] = target: T1, L-2-hydroxy-4-methylpentanoic acid-dehydrogenase; experiment: Reduction of 2-ketocarboxylic acids to L-2-hydroxycarboxylic acids (Example 2), NADH decrease at 340 nm; format: biochemical, Lactobacillus confusus; conditions: same enzyme solution
Method: (§2) In each case, there was again measured the maximal beginning reaction velocity Vmax and the KM value. […] In a corresponding manner there was determined the enzyme activity against other 2-ketocarboxylic acids. The keto acid concentration in each case was varied in the range of 0.01 to a maximum of 10 millimoles. The maximal initial reaction velocity was ascertained through the increase of the substrate concentration. The Michaelis constant (KM value) corresponds to the substrate concentration in moles/liter at which the reaction velocity V is half the maximum initial reaction velocity. The kinetic constants Vmax and KM were ascertained through nonlinear regression of the Michaelis-[…] equation and are summarized in following Table 4. The relative activities (U/ml) stated in Table 5 were measured at substrate final concentrations of 0.1 millimoles, 1 millimole, and 10 millimoles. In all cases, there was employed the same enzyme solution. At 10 millimoles in all substrates there was already noticeable a substrate excess inhibition.

[3] = substrate: NC(=O)C1=CN([C@@H]2O[C@H](COP(=O)(O)OP(=O)(O)OC[C@H]3O[C@@H](n4cnc5c(N)ncnc54)[C@H](O)[C@@H]3O)[C@@H](O)[C@H]2O)C=CC1; experiment: purified protein, by the assay type; conditions: other: pH 7.0, 0.79 millimole 2-keto-4-methylpentanoic acid, NADH 0.01 to 0.33 millimoles
[4] = substrate: CC(C)CC(O)C(=O)O; experiment: purified protein, by the assay type; format: biochemical, Lactobacillus confusus; conditions: other: dehydrogenation, pH 8.0, 3 mmoles NAD+, with the enantiomer mixture based on the total concentration
Method: as §1

[5] = substrate: CC(C)C[C@H](O)C(=O)O; experiment: purified protein, by the assay type; format: biochemical, Lactobacillus confusus; conditions: other: dehydrogenation, pH 8.0, 3 mmoles NAD+, with the enantiomer mixture based on the total concentration
Method: as §1

[6] = substrate: CCCC(O)C(=O)O; experiment: purified protein, by the assay type; format: biochemical, Lactobacillus confusus; conditions: other: dehydrogenation, pH 8.0, 3 mmoles NAD+, with the enantiomer mixture based on the total concentration
Method: as §1

[7] = substrate: CCCCC(O)C(=O)O; experiment: purified protein, by the assay type; format: biochemical, Lactobacillus confusus; conditions: other: dehydrogenation, pH 8.0, 3 mmoles NAD+, with the enantiomer mixture based on the total concentration
Method: as §1

[8] = substrate: CSCCC(O)C(=O)O; experiment: purified protein, by the assay type; format: biochemical, Lactobacillus confusus; conditions: other: dehydrogenation, pH 8.0, 3 mmoles NAD+, with the enantiomer mixture based on the total concentration
Method: as §1

[9] = substrate: NC(=O)c1ccc[n+]([C@@H]2O[C@H](COP(=O)([O-])OP(=O)(O)OC[C@H]3O[C@@H](n4cnc5c(N)ncnc54)[C@H](O)[C@@H]3O)[C@@H](O)[C@H]2O)c1; experiment: Dependency of the dehydrogenation reaction velocity on the NAD+ concentration; format: biochemical, Lactobacillus confusus; conditions: other: pH 8.0, 6.3 millimoles L-2-hydroxy-4-methylpentanoic acid, NAD+ 0.05 to 7.0 millimoles
Description: The dependency of the reaction velocity on the NAD^+ concentration was ascertained in a test mixture which contained 0.1 molar phosphate buffer for pH 8.0, 6.3 millimoles of L-2-hydroxy-4-methylpentanoic acid and limiting amounts of enzyme. The NAD^+ concentration was varied in the range of 0.05 to 7.0 millimoles.
The KM value for NAD^+ was ascertained by non-linear regression of the Michaelis-Menten equation and was 3.3×10^-4 moles.

[10] = substrate: CC(C)CC(=O)C(=O)O; experiment: purified protein, by the assay type; format: biochemical, Lactobacillus confusus; conditions: other: reduction, pH 7.0, 0.235 millimoles NADH
Method: as §2

[11] = substrate: CCCC(=O)C(=O)O; experiment: purified protein, by the assay type; format: biochemical, Lactobacillus confusus; conditions: other: reduction, pH 7.0, 0.235 millimoles NADH
Method: as §2

[12] = substrate: CCCCC(=O)C(=O)O; experiment: purified protein, by the assay type; format: biochemical, Lactobacillus confusus; conditions: other: reduction, pH 7.0, 0.235 millimoles NADH
Method: as §2

[13] = substrate: CSCCC(=O)C(=O)O; experiment: purified protein, by the assay type; format: biochemical, Lactobacillus confusus; conditions: other: reduction, pH 7.0, 0.235 millimoles NADH
Method: as §2

[14] = test concentration 1 mM substrate
[15] = test concentration 10 mM substrate
[16] = test concentration 100 mM substrate
[17] = test concentration 0.1 mM substrate

Molecule: CC(C)CC(=O)C(=O)O [2-Keto-4-methylpentanoic acid]
relative activity [2, 17]: 133 U/ml
relative activity [2, 14]: 259 U/ml
relative activity [2, 15]: 144 U/ml

Molecule: CSCCC(=O)C(=O)O [2-Keto-4-(methylmercapto)-butyric acid]
relative activity [2, 17]: 33 U/ml
relative activity [2, 14]: 93 U/ml
relative activity [2, 15]: 53 U/ml

Molecule: CCCC(=O)C(=O)O [2-Ketopentanoic acid]
relative activity [2, 17]: 149 U/ml
relative activity [2, 14]: 344 U/ml
relative activity [2, 15]: 161 U/ml

B1: L-2-hydroxy-4-methylpentanoic acid-dehydrogenase (Weissella confusa) (protein)
chain: T1 sequence (P14295 1-310)
notes: the cells harvesting by centrifugation, solubilizing the product in a suspension buffered to pH 7 and obtaining the enzyme from the extract; made in house; host or cells: Lactobacillus confusus DSM 20196 (natural producer, not recombinant)
Km [3]: 3.3e-05 mol
Km [4]: 1400 µM
Vmax [4]: 9.6 µmol/min/mg
Km [5]: 620 µM
Vmax [5]: 9.8 µmol/min/mg
Km [6]: 3550 µM
Km [7]: 4500 µM
Km [8]: 11000 µM
Vmax [8]: 1.2 µmol/min/mg
Km [9]: 330 µM
Km [10]: 70 µM
Vmax [10]: 64 µmol/min/mg
Km [11]: 250 µM
Km [12]: 120 µM
Km [13]: 210 µM
Vmax [13]: 28 µmol/min/mg

Other lines, results leading:

relative activity [1, 14]: 8.4 U/ml
relative activity [1, 15]: 39.5 U/ml
relative activity [1, 16]: 3.9 U/ml
Molecule: CCCCC(O)C(=O)O (racemic) [DL-2-Hydroxyhexanoic acid]

relative activity [1, 14]: 28.4 U/ml
relative activity [1, 15]: 49.7 U/ml
relative activity [1, 16]: 5.0 U/ml
Molecule: CC(C)C[C@H](O)C(=O)O [L-2-Hydroxy-4-methylpentanoic acid]

relative activity [2, 17]: 123 U/ml
relative activity [2, 14]: 301 U/ml
relative activity [2, 15]: 103 U/ml
Molecule: CCCCC(=O)C(=O)O [2-Ketohexanoic acid]

relative activity [1, 14]: 16.6 U/ml
relative activity [1, 15]: 39.8 U/ml
relative activity [1, 16]: 2.9 U/ml
Molecule: CC(C)CC(O)C(=O)O (racemic) [DL-2-Hydroxy-4-methylpentanoic acid]

relative activity [1, 14]: 0.46 U/ml
relative activity [1, 15]: 2.7 U/ml
relative activity [1, 16]: 5.1 U/ml
Molecule: CSCCC(O)C(=O)O (racemic) [DL-2-Hydroxy-4-(methylmercapto)-butyric acid]

relative activity [1, 14]: 6.2 U/ml
relative activity [1, 15]: 31.2 U/ml
relative activity [1, 16]: 5.3 U/ml
Molecule: CCCC(O)C(=O)O (racemic) [DL-2-Hydroxypentanoic acid]
